According to US20250340671A1, “METHODS AND PHARMACEUTICAL COMPOSITIONS FOR REDUCING THE NEURO[…] OF COCAINE” (University of Cincinnati, priority 2022, published 2025):

Experiments:
[1] = test system: lever-pressing behavior in rats; experiment: Single-dose reinstatement (SDR) of lever-pressing after 12 μmol/kg cocaine; assay type: in vivo, Male Sprague-Dawley rats; settings: for average difference in latency between vehicle and SCH23390: 10 nmol/kg SCH23390 alone, absence of h2E2; for mean latency of lever-pressing behavior: 0 nmol/kg gave 17.11, FIG. 6; for mean duration of lever-pressing: 0 nmol/kg gave 35.44, FIG. 7
[2] = in vivo; cited from earlier work

## CN1CCc2cc(Cl)c(O)cc2[C@@H](c2ccccc2)C1 [SCH23390]
[1]; FIG. 9
  average difference in latency between vehicle and SCH23390: about 2.81 minutes
[1]; FIG. 9, listed as SCH233390
  average difference in latency between vehicle and SCH23390: 2.81 min
[1]; 10 nmol/kg SCH23390 before SDR, in the presence of h2E2 (4 separate days from day seven after h2E2), FIG. 10
  average duration of lever-pressing activity: 9.28 min
[1]; 10 nmol/kg SCH23390 before SDR, in the presence of h2E2 (from seven days after 360 umol/kg h2E2), FIG. 9
  average decrease in latency versus the prior day (h2E2 alone): 2.56 min
[1]; SCH23390 alone 10 nmol/kg IV before 12 μmol/kg cocaine SDR
  mean latency of lever-pressing behavior: 12.17
[1]; SCH23390 alone 10 nmol/kg
  mean duration of lever-pressing: 23.16
[1]; SCH23390 alone 20 nmol/kg IV before 12 μmol/kg cocaine SDR
  mean latency of lever-pressing behavior: 5.17
[1]; SCH23390 alone 20 nmol/kg
  mean duration of lever-pressing: 5.43
[1]; SCH23390 alone 30 nmol/kg IV before 12 μmol/kg cocaine SDR
  mean latency of lever-pressing behavior: 1.72
[1]; SCH23390 alone 30 nmol/kg
  mean duration of lever-pressing: 2.05
[1]; days with 10 nmol/kg SCH23390 in the presence of h2E2, FIG. 8
  average latency: 9.93 min
[2]
  t-max: approximately 30 min
